Measured values reported in patent US10851099B2, “Dipeptide piperidine derivatives” (OncoArendi Therapeutics S.A., priority 2018, dated 2020).
Counter-ions that a name gives are not always drawn.

Legend:
[1] = molecular target: T1, recombinant human arginase 2 (Homo sapiens, UniProt P78540); assay: Human arginase inhibition assay (colorimetric urea detection), arginase 2; type: biochemical; details: IC50 class, hydrochloride salts, 1 h at 37° C., pH 7.4, 10 mM L-arginine, 200 μM MnCl2, read-out: Activity Class (ARG II)
T1 construct: made in house; host or cells: E. coli
T1 sequence (P78540 23-354): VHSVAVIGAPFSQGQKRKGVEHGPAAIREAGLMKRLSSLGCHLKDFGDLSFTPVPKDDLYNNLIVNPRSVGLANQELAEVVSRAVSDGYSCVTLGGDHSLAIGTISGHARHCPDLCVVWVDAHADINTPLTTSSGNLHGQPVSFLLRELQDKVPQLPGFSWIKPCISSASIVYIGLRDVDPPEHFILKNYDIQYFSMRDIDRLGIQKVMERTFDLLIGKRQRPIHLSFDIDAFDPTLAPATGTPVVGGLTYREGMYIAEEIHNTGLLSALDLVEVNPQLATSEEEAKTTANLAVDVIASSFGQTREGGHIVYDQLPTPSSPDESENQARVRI
Description: (§1) The inhibitory activities of the compounds of the invention were assessed using recombinant human arginase 1 and 2. Both enzymes were biosynthesized using a prokaryotic expression system (E. coli) and purified by fast protein liquid chromatography (FPLC). The compounds were screened in 96-well plates at the total reaction volume of 100 μL. Briefly, recombinant enzymes were incubated with the tested compounds for 1 h at 37° C. in the reaction buffer (100 mM sodium phosphate buffer, 130 mM NaCl, 1 mg/mL BSA, pH 7.4) containing substrate (10 mM L-arginine hydrochloride) and cofactor (200 μM MnCl2). The assay is based on the detection of urea, which is generated during the conversion of L-arginine into L-ornithine catalyzed by ARG1 or ARG2. The colorimetrically detectable product was developed by adding a mixture of reagent A (4 mM oPA, 50 mM boric acid, 1 M sulfuric acid, 0.03% Brij-35) and reagent B (4 mM NED, 50 mM boric acid, 1 M sulfuric acid, 0.03% Brij-35) in equal proportions. The absorbance for each well was measured at 515 nm and the enzyme inhibition was calculated. The urea production in the absence of any tested compound was considered as maximal enzyme activity. The absorbance at the absence of arginase (background) was subtracted from all the values. Normalized values were analyzed using GraphPad Prism 7.0 software by plotting inhibition curves and determining the IC50 values.
(§2) The inhibitory activity toward humane arginase 1 of the hydrochloride salts of the exemplary compounds according to the invention is presented in Table 5.
The inhibitory activity toward humane arginase 2 of the hydrochloride salts of the selected exemplary compounds according to the invention is presented in Table 6.

[2] = molecular target: T2, recombinant human arginase 1 (Homo sapiens, UniProt P05089); assay: Human arginase inhibition assay (colorimetric urea detection), arginase 1; type: biochemical; details: IC50 class, hydrochloride salts, 1 h at 37° C., pH 7.4, 10 mM L-arginine, 200 μM MnCl2, read-out: Activity Class (ARG I)
T2 construct: made in house; host or cells: E. coli
T2 sequence (P05089 1-322): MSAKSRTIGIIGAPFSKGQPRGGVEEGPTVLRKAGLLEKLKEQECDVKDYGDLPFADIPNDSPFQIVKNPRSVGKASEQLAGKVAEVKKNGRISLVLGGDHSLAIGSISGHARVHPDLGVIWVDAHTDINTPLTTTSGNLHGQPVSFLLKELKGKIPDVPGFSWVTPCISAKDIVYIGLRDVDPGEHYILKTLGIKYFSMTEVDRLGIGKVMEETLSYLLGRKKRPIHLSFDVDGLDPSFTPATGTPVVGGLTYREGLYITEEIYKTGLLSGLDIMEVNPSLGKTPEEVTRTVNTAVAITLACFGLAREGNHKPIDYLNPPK
Description: as §1, §2

| Structure (SMILES) | IC50 [1] | IC50 [2] |
| --- | --- | --- |
| NCCCC[C@H](N)C(=O)N1C[C@@H](CCB(O)O)C[C@](N)(C(=O)O)C1 [Example 7, (3R,5S)-1-(L-Lysyl)-3-amino-5-(2-boronoethyl)piperidine-3-carboxylic acid trihydrochloride] | 500 to 999 nM | 1 to 249 nM |
| N[C@@H](Cc1ccccc1)C(=O)N1C[C@@H](CCB(O)O)C[C@](N)(C(=O)O)C1 [Example 11, (3R,5S)-1-(L-Phenylalanyl)-3-amino-5-(2-boronoethyl)piperidine-3-carboxylic acid dihydrochloride] | 1000 to 10000 nM | 1 to 249 nM |
| N[C@@H](Cc1c[nH]cn1)C(=O)N1C[C@@H](CCB(O)O)C[C@](N)(C(=O)O)C1 [Example 13, (3R,5S)-1-(L-Histidyl)-3-amino-5-(2-boronoethyl)piperidine-3-carboxylic acid trihydrochloride] | 500 to 999 nM | 1 to 249 nM |
| N=C(N)NCCC[C@H](N)C(=O)N1C[C@@H](CCB(O)O)C[C@](N)(C(=O)O)C1 [Example 20, (3R,5S)-1-(L-Arginyl)-3-amino-5-(2-boronoethyl)piperidine-3-carboxylic acid trihydrochloride] | 250 to 499 nM | 1 to 249 nM |
| C[C@H](N)C(=O)N1C[C@@H](CCB(O)O)C[C@](N)(C(=O)O)[C@@H]1C [Example 30, (2S,3R,5S)-1-(L-alanyl)-3-amino-5-(2-boronoethyl)-2-methylpiperidine-3-carboxylic acid dihydrochloride] | 500 to 999 nM | 1 to 249 nM |
